Experimental data from patent US11619628B2, “Device and determination system using same” (Osaka University, priority 2017, dated 2023).

B1: UnaG (CΔ0)-NLuc (NΔ1) fusion protein: Fusion of UnaG (CΔ0) and NLuc (NΔ1) at the KpnI site, linker GT; amino acid sequence SEQ ID NO: 12 (protein)
chain: GGSGMVEKFVGTWKIADSHNFGEYLKAIGAPKELSDGGDATTPTLYISQKDGDKMTVKIENGPPTFLDTQVKFKLGEEFDEFPSDRRKGVKSVVNLVGEKYVQKWDGKETTYVREIKDGKLVVTLTMGDVVAVRSYRRATEGTVFTLEDFVGDWRQTAGYNLDQVLEQGGVSSLFQNLGVSVTPIQRIVLSGENGLKIDIHVIIPYEGLSGDQMGQIEKIFKVVYPVDDHHFKVILHYGTLVIDGVTPNMIDYFGRPYEGIAVFDGKKITVTGTLWNGNKIIDERLINPDGSLLFRVTINGVTGWRLCERILA
modifications: UnaG(C 0)-NLuc(N 1)

Legend:
[1] = biological target: UnaG protein (UniProtKB/Swiss-Prot: P0DM59.1, GenBank: AB763906.1); details: binding ability to indirect bilirubin; Kumagai et al., Cell 2013, 153, 1602-1611; read-out: dissociation constant; cited from earlier work
[2] = Room-temperature storage of lyophilized samples, bilirubin affinity re-measured; format: physicochemical; details: lyophilized sample stored at room temperature; FIG. 5
Description: 500 μL of the purified UnaG (CΔ0)-NLuc (NΔ1) fusion protein was added to a 15-mL Falcon tube and frozen with liquid nitrogen. Thereafter, a powder of the protein solution was obtained by a lyophilizer. The powder was stored at room temperature.
After the preparation of the lyophilized samples, in order to investigate how long the activity is maintained, the lyophilized samples that had been […] were stored at room temperature every few days, and the affinity for bilirubin was measured according to the method described in the above item 7.

Molecule	Kd [1] [nM]	activity (affinity for bilirubin) after storage [2]
C=CC1=C(C)/C(=C/c2[nH]c(Cc3[nH]c(/C=C4\NC(=O)C(C)=C4C=C)c(C)c3CCC(=O)O)c(CCC(=O)O)c2C)NC1=O [bilirubin]	0.098	
B1		activity was maintained
